Test results: the NIST ThermoML archive (doi:10.1021/je100145f)
± gives the expanded uncertainty stated by the source.

Test: xn = mol fraction of the nth substance listed
Conditions: 101 kPa, Liquid, Vibrating tube method

N#Cc1ccccc1 [benzonitrile] + CCCCCCCCC
mass density [kg/m3]
Conditions	285.15 K	288.15 K	293.15 K	298.15 K	303.15 K	308.15 K	313.15 K
x1 = 0.0239	728.45 ± 0.31	726.13 ± 0.31	722.24 ± 0.32	718.34 ± 0.32	714.42 ± 0.32	710.49 ± 0.32	706.54 ± 0.32
x1 = 0.0499	732.81 ± 0.31	730.47 ± 0.31	726.57 ± 0.31	722.65 ± 0.32	718.72 ± 0.32	714.77 ± 0.32	710.81 ± 0.32
x1 = 0.0989	741.4 ± 0.31	739.05 ± 0.31	735.11 ± 0.31	731.16 ± 0.31	727.2 ± 0.32	723.22 ± 0.32	719.23 ± 0.32
x1 = 0.1985	760.34 ± 0.31	757.95 ± 0.31	753.95 ± 0.31	749.94 ± 0.31	745.93 ± 0.31	741.89 ± 0.32	737.84 ± 0.32
x1 = 0.2542	771.77 ± 0.31	769.36 ± 0.31	765.34 ± 0.31	761.3 ± 0.31	757.25 ± 0.32	753.19 ± 0.32	749.11 ± 0.32
x1 = 0.2998	781.58 ± 0.32	779.16 ± 0.32	775.11 ± 0.32	771.05 ± 0.32	766.97 ± 0.32	762.89 ± 0.32	758.79 ± 0.32
x1 = 0.4005	804.92 ± 0.32	802.47 ± 0.32	798.37 ± 0.32	794.26 ± 0.32	790.14 ± 0.32	786 ± 0.32	781.85 ± 0.32
x1 = 0.4966	829.64 ± 0.33	827.16 ± 0.33	823.01 ± 0.33	818.85 ± 0.33	814.68 ± 0.33	810.5 ± 0.33	806.31 ± 0.33
x1 = 0.5998	859.12 ± 0.33	856.6 ± 0.33	852.4 ± 0.33	848.19 ± 0.33	843.96 ± 0.33	839.73 ± 0.33	835.48 ± 0.33
x1 = 0.6996	891.01 ± 0.32	888.45 ± 0.32	884.18 ± 0.32	879.91 ± 0.32	875.63 ± 0.32	871.34 ± 0.32	867.05 ± 0.32
x1 = 0.7999	926.93 ± 0.31	924.34 ± 0.31	920 ± 0.31	915.67 ± 0.31	911.33 ± 0.31	906.99 ± 0.31	902.64 ± 0.31
x1 = 0.9001	967.24 ± 0.3	964.61 ± 0.3	960.22 ± 0.3	955.83 ± 0.3	951.44 ± 0.3	947.05 ± 0.3	942.65 ± 0.3
x1 = 0.9497	988.96 ± 0.3	986.32 ± 0.3	981.91 ± 0.3	977.49 ± 0.3	973.08 ± 0.3	968.67 ± 0.3	964.25 ± 0.3
x1 = 0.9805	1003.05 ± 0.3	1000.4 ± 0.3	995.97 ± 0.3	991.55 ± 0.3	987.13 ± 0.3	982.7 ± 0.3	978.27 ± 0.3
x1 = 1	1012.21 ± 0.31	1009.55 ± 0.31	1005.12 ± 0.3	1000.69 ± 0.3	996.26 ± 0.3	991.83 ± 0.3	987.4 ± 0.3

N#Cc1ccccc1 [benzonitrile] + CCCCCCCC
mass density [kg/m3]
Conditions	283.15 K	288.15 K	293.15 K	298.15 K	303.15 K	308.15 K	313.15 K	318.15 K
x1 = 0.022	714.94 ± 0.22	710.93 ± 0.22	706.9 ± 0.22	702.86 ± 0.23	698.79 ± 0.23	694.71 ± 0.23	690.6 ± 0.23	686.47 ± 0.23
x1 = 0.0576	721.95 ± 0.22	717.92 ± 0.22	713.87 ± 0.22	709.81 ± 0.23	705.72 ± 0.23	701.62 ± 0.23	697.49 ± 0.23	693.34 ± 0.23
x1 = 0.102	731.07 ± 0.22	727.01 ± 0.22	722.94 ± 0.22	718.85 ± 0.23	714.74 ± 0.23	710.61 ± 0.23	706.47 ± 0.23	702.29 ± 0.23
x1 = 0.1999	752.43 ± 0.23	748.32 ± 0.23	744.2 ± 0.23	740.06 ± 0.23	735.9 ± 0.23	731.73 ± 0.23	727.54 ± 0.23	723.33 ± 0.23
x1 = 0.2998	776.16 ± 0.23	772.01 ± 0.23	767.84 ± 0.24	763.66 ± 0.24	759.46 ± 0.24	755.25 ± 0.24	751.02 ± 0.24	746.78 ± 0.24
x1 = 0.4001	802.02 ± 0.25	797.83 ± 0.25	793.63 ± 0.25	789.41 ± 0.25	785.18 ± 0.25	780.93 ± 0.25	776.67 ± 0.25	772.39 ± 0.25
x1 = 0.4637	819.57 ± 0.26	815.35 ± 0.26	811.12 ± 0.26	806.89 ± 0.26	802.63 ± 0.26	798.37 ± 0.27	794.09 ± 0.27	789.79 ± 0.27
x1 = 0.4997	829.9 ± 0.27	825.68 ± 0.27	821.44 ± 0.27	817.19 ± 0.28	812.93 ± 0.28	808.65 ± 0.28	804.35 ± 0.28	800.04 ± 0.28
x1 = 0.5004	830.12 ± 0.27	825.9 ± 0.27	821.66 ± 0.27	817.41 ± 0.28	813.14 ± 0.28	808.86 ± 0.28	804.56 ± 0.28	800.25 ± 0.28
x1 = 0.6001	860.7 ± 0.27	856.42 ± 0.27	852.14 ± 0.27	847.85 ± 0.27	843.55 ± 0.27	839.23 ± 0.27	834.9 ± 0.27	830.56 ± 0.27
x1 = 0.7001	894.21 ± 0.27	889.88 ± 0.27	885.55 ± 0.27	881.22 ± 0.27	876.87 ± 0.27	872.51 ± 0.27	868.15 ± 0.27	863.78 ± 0.27
x1 = 0.7998	930.65 ± 0.27	926.27 ± 0.27	921.9 ± 0.27	917.52 ± 0.27	913.13 ± 0.27	908.74 ± 0.27	904.34 ± 0.27	899.94 ± 0.27
x1 = 0.9001	970.69 ± 0.28	966.28 ± 0.28	961.87 ± 0.28	957.46 ± 0.28	953.05 ± 0.28	948.63 ± 0.28	944.21 ± 0.28	939.78 ± 0.28
x1 = 0.95	991.86 ± 0.29	987.44 ± 0.29	983.01 ± 0.29	978.59 ± 0.29	974.17 ± 0.29	969.74 ± 0.29	965.31 ± 0.29	960.88 ± 0.29
x1 = 0.9801	1005.05 ± 0.3	1000.62 ± 0.29	996.19 ± 0.29	991.77 ± 0.29	987.34 ± 0.29	982.91 ± 0.29	978.48 ± 0.29	974.05 ± 0.29
x1 = 1	1013.99 ± 0.31	1009.55 ± 0.31	1005.12 ± 0.3	1000.69 ± 0.3	996.26 ± 0.3	991.83 ± 0.3	987.4 ± 0.3	982.96 ± 0.3
